Source: US10538498B2, “1,3,4-oxadiazole sulfonamide derivative compounds as histone deacetylase 6 inhibitor, and the pharmaceutical composition comprising the same” (Chong Kun Dang Pharmaceutical Corp., priority 2015, dated 2020)

Target: T1, human recombinant HDAC6 (Homo sapiens, UniProt Q9UBN7)
T1 construct: purchased Calbiochem 382180
T1 sequence (Q9UBN7 1-1215): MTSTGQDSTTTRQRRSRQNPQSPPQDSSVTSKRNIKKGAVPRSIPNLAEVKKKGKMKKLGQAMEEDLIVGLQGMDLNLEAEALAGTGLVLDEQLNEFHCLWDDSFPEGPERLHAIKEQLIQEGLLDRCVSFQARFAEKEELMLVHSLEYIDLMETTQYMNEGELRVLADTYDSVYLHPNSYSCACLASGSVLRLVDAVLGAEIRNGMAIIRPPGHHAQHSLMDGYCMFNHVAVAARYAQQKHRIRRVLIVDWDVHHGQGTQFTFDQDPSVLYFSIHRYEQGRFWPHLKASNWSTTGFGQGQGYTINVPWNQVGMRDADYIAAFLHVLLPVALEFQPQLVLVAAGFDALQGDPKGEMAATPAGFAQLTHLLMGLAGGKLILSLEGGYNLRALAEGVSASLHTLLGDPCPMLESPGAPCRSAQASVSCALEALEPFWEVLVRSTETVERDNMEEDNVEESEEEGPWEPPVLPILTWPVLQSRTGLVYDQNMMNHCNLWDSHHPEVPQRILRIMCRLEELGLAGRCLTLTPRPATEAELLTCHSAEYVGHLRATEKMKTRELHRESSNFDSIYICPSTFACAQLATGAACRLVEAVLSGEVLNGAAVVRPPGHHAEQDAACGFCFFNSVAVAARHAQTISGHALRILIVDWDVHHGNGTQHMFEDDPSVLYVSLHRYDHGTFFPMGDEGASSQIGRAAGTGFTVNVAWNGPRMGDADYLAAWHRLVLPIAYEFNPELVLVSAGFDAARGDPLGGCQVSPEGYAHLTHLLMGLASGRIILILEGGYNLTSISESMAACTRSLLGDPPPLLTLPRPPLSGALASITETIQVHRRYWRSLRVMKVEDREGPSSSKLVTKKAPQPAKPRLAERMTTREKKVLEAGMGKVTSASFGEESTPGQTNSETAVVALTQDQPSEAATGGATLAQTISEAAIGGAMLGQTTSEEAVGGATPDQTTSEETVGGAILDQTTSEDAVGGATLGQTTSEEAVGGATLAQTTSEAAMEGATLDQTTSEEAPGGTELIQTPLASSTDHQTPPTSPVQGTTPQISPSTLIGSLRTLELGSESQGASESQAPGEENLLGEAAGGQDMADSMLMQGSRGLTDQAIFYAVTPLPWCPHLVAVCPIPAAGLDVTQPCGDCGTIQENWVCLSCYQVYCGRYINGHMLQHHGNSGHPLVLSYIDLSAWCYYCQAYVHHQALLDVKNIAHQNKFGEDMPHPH
Test: HDAC6 enzyme activity inhibition assay (HDAC Fluorimetric Drug Discovery Kit)
Assay type: biochemical
Conditions: for HDAC6 selectivity (fold): HDAC1 vs HDAC6; for IC50: same protocol as the HDAC1 enzyme activity test
In short: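 Both isoforms are run by an identical fluorimetric protocol: deacetylation of 10 μM Fluor de Lys-SIRT1 substrate by 0.3 μg recombinant enzyme over 60 min at 30° C, in the presence of 5-fold compound dilutions. Signal is developed for 30 min and read at Ex 360/Em 460 to derive IC50.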

What does the source list for CCS(=O)(=O)N(Cc1ccc(-c2nnc(C(F)F)o2)cc1F)c1cccc(CN2CCN(S(C)(=O)=O)CC2)c1 [Compound 11404, N-(4-(5-(difluoromethyl)-1,3,4-oxadiazol-2-yl)-2-fluorobenzyl)-N-(3-((4-(methylsulfonyl)piperazin-1-yl)methyl)phenyl)ethanesulfonamide]?
HDAC6 selectivity (fold): 952 fold; IC50: 0.105 µM

How did the “HDAC6 selectivity (fold)” value turn out when CS(=O)(=O)N(Cc1ccc(-c2nnc(C(F)(F)F)o2)cc1F)c1ccccc1Cl [Compound 11279, N-(2-chlorophenyl)-N-(2-fluoro-4-(5-(trifluoromethyl)-1,3,4-oxadiazol-2-yl)benzyl)methanesulfonamide] was run?
The value was 901 fold.

And the IC50?
The IC50 was 0.111 µM.

Which results are given for O=S(=O)(CCN1CCN(Cc2ccccc2)CC1)N(Cc1ccc(-c2nnc(C(F)F)o2)cc1)c1ccccc1 [Compound 11663, 2-(4-benzylpiperazin-1-yl)-N-(4-(5-(difluoromethyl)-1,3,4-oxadiazol-2-yl)benzyl)-N-phenylethanesulfonamide]?
HDAC6 selectivity (fold): 578 fold; IC50: 0.173 µM

Which results are given for COc1ccccc1C1CCN(CCS(=O)(=O)N(Cc2ccc(-c3nnc(C(F)F)o3)cc2)c2ccccc2)CC1 [Compound 11845, N-(4-(5-(difluoromethyl)-1,3,4-oxadiazol-2-yl)benzyl)-2-(4-(2-methoxyphenyl)piperidin-1-yl)-N-phenylethane-1-sulfonamide]?
HDAC6 selectivity (fold): 103 fold; IC50: 0.973 µM

Which results are given for CS(=O)(=O)N(Cc1ccc(-c2nnc(C(F)(F)F)o2)c(F)c1)c1ccccc1 [Compound 11183, N-(3-fluoro-4-(5-(trifluoromethyl)-1,3,4-oxadiazol-2-yl)benzyl)-N-phenylmethanesulfonamide]?
HDAC6 selectivity (fold): 426 fold; IC50: 0.235 µM

With O=S(=O)(CCN1CCC1)N(Cc1ccc(-c2nnc(C(F)F)o2)cc1)c1ccccc1 [Compound 11738, 2-(azetidin-1-yl)-N-(4-(5-(difluoromethyl)-1,3,4-oxadiazol-2-yl)benzyl)-N-phenylethanesulfonamide] as the compound, how does the “HDAC6 selectivity (fold)” value read?
Its value is 1466 fold.

And the IC50?
Its IC50 is 0.0682 µM.

How did the “HDAC6 selectivity (fold)” value turn out when COCCN1CCN(CCS(=O)(=O)N(Cc2ccc(-c3nnc(C(F)F)o3)cc2)c2ccccc2)CC1 [Compound 11758, N-(4-(5-(difluoromethyl)-1,3,4-oxadiazol-2-yl)benzyl)-2-(4-(2-methoxyethyl)piperazin-1-yl)-N-phenylethane-1-sulfonamide] was run?
Its value is 1039 fold.

What about the IC50 of the same compound?
Its IC50 is 0.0962 µM.

With CC(=O)c1cccc(N(Cc2ccc(-c3nnc(C(F)F)o3)cc2F)S(C)(=O)=O)c1 [Compound 11254, N-(3-acetylphenyl)-N-(4-(5-(difluoromethyl)-1,3,4-oxadiazol-2-yl)-2-fluorobenzyl)methanesulfonamide] as the compound, how does the “HDAC6 selectivity (fold)” value read?
The value was 3448 fold.

And the IC50?
Its IC50 is 0.029 µM.

Which “HDAC6 selectivity (fold)” value does the source give for COc1ccc(S(=O)(=O)NCc2ccc(-c3nnc(C(F)(F)F)o3)cc2)cc1 [Compound 11078, 4-methoxy-N-(4-(5-(trifluoromethyl)-1,3,4-oxadiazol-2-yl)benzyl)benzenesulfonamide] here?
The value was 29 fold.

And the IC50?
The IC50 was 3.47 µM.

What does the source list for O=S(=O)(CCN1CC(F)(F)C1)N(Cc1ccc(-c2nnc(C(F)F)o2)cc1)c1ccccc1 [Compound 11821, 2-(3,3-difluoroazetidin-1-yl)-N-(4-(5-(difluoromethyl)-1,3,4-oxadiazol-2-yl)benzyl)-N-phenylethane-1-sulfonamide]?
HDAC6 selectivity (fold): 747 fold; IC50: 0.134 µM

Which results are given for O=S(=O)(C1CC1)N(Cc1ccc(-c2nnc(C(F)F)o2)cc1F)c1ccccc1 [Compound 11291, N-(4-(5-(difluoromethyl)-1,3,4-oxadiazol-2-yl)-2-fluorobenzyl)-N-phenylcyclopropanesulfonamide]?
HDAC6 selectivity (fold): 3226 fold; IC50: 0.031 µM

For O=S(=O)(CCN1CC=C(c2ccc(Cl)cc2)CC1)N(Cc1ccc(-c2nnc(C(F)F)o2)cc1)c1ccccc1 [Compound 11842, 2-(4-(4-chlorophenyl)-3,6-dihydropyridin-1(2H)-yl)-N-(4-(5-(difluoromethyl)-1,3,4-oxadiazol-2-yl)benzyl)-N-phenylethane-1-sulfonamide], which “HDAC6 selectivity (fold)” value is on record?
Its value is 121 fold.

What about the IC50 of the same compound?
The IC50 was 0.826 µM.

For CCC(=O)N1CC(N2CCC(S(=O)(=O)N(Cc3ccc(-c4nnc(C(F)F)o4)cc3)c3cccc(Cl)c3)CC2)C1 [Compound 11780, N-(3-chlorophenyl)-N-(4-(5-(difluoromethyl)-1,3,4-oxadiazol-2-yl)benzyl)-1-(1-propionylazetidin-3-yl)piperidine-4-sulfonamide], which “HDAC6 selectivity (fold)” value is on record?
Its value is 1893 fold.

And the IC50?
The IC50 was 0.0528 µM.

Which results are given for O=S(=O)(CCN1CCCOCC1)N(Cc1ccc(-c2nnc(C(F)F)o2)cc1)c1ccccc1 [Compound 11752, N-(4-(5-(difluoromethyl)-1,3,4-oxadiazol-2-yl)benzyl)-2-(1,4-oxazepan-4-yl)-N-phenylethane-1-sulfonamide]?
HDAC6 selectivity (fold): 868 fold; IC50: 0.115 µM

Which results are given for Cc1cccc(N(Cc2ccc(-c3nnc(C(F)F)o3)cc2)S(=O)(=O)C2CCN(C3CCOCC3)CC2)c1 [Compound 11699, N-(4-(5-(difluoromethyl)-1,3,4-oxadiazol-2-yl)benzyl)-1-(tetrahydro-2H-pyran-4-yl)-N-(m-tolyl)piperidine-4-sulfonamide]?
HDAC6 selectivity (fold): 776 fold; IC50: 0.129 µM

Which results are given for CCS(=O)(=O)N(Cc1ccc(-c2nnc(C(F)(F)F)o2)cc1F)c1cccc(CN2CCN(C(C)=O)CC2)c1 [Compound 11406, N-(3-((4-acetylpiperazin-1-yl)methyl)phenyl)-N-(2-fluoro-4-(5-(trifluoromethyl)-1,3,4-oxadiazol-2-yl)benzyl)ethanesulfonamide]?
HDAC6 selectivity (fold): 435 fold; IC50: 0.23 µM

For O=S(=O)(CCCN1CCOCC1)N(Cc1ccc(-c2nnc(C(F)F)o2)cc1F)c1ccccc1 [Compound 11588, N-(4-(5-(difluoromethyl)-1,3,4-oxadiazol-2-yl)-2-fluorobenzyl)-3-morpholino-N-phenylpropane-1-sulfonamide], which “HDAC6 selectivity (fold)” value is on record?
Its value is 2273 fold.

What about the IC50 of the same compound?
Its IC50 is 0.044 µM.

Which results are given for CC1CCN(CCS(=O)(=O)N(Cc2ccc(-c3nnc(C(F)F)o3)cc2)c2ccccc2)CC1 [Compound 11675, N-(4-(5-(difluoromethyl)-1,3,4-oxadiazol-2-yl)benzyl)-2-(4-methylpiperidin-1-yl)-N-phenylethanesulfonamide]?
HDAC6 selectivity (fold): 549 fold; IC50: 0.182 µM

Which results are given for O=S(=O)(CCN1CC[C@@H](O)C1)N(Cc1ccc(-c2nnc(C(F)F)o2)cc1)c1ccccc1 [Compound 11801, (R)—N-(4-(5-(difluoromethyl)-1,3,4-oxadiazol-2-yl)benzyl)-2-(3-hydroxypyrrolidin-1-yl)-N-phenylethane-1-sulfonamide]?
HDAC6 selectivity (fold): 2941 fold; IC50: 0.034 µM

Which “HDAC6 selectivity (fold)” value does the source give for CC(C)N1Cc2ccc(N(Cc3ccc(-c4nnc(C(F)F)o4)cn3)S(C)(=O)=O)cc2C1 [Compound 11734, N-((5-(5-(difluoromethyl)-1,3,4-oxadiazol-2-yl)pyridin-2-yl)methyl)-N-(2-isopropylisoindolin-5-yl)methanesulfonamide] here?
Its value is 132 fold.

What about the IC50 of the same compound?
The IC50 was 0.755 µM.

CN1CC(N2CCC(S(=O)(=O)N(Cc3ccc(-c4nnc(C(F)F)o4)cc3)c3cccc(Cl)c3)CC2)C1 [Compound 11785, N-(3-chlorophenyl)-N-(4-(5-(difluoromethyl)-1,3,4-oxadiazol-2-yl)benzyl)-1-(1-methylazetidin-3-yl)piperidine-4-sulfonamide] was tested. Which “HDAC6 selectivity (fold)” value did it give?
The value was 2092 fold.

And the IC50?
The IC50 was 0.0478 µM.
